What all share (assay type): biochemical
One assay has as its target JAK2 (Homo sapiens (Human), UniProt O60674). The experiment in a line: JAK2 LANCE Ultra kinase assay. The conditions noted are these: 12 uM ATP. On the technique in general: In TR-FRET formats the signal depends on donor and acceptor labels being close together.
For a further assay, the target named is JAK1 (Homo sapiens (Human), UniProt P23458). The experiment in a line: JAK1 LANCE Ultra kinase assay. The conditions noted are these: for IC50: 38 uM ATP; for JAK2/JAK1: ratio of IC50 JAK2 to IC50 JAK1. As to the method:
Inhibition test on activity of JAK kinase in vitro was carried out by the following methods.
JAK1 LANCE® Ultra assay, JAK2 LANCE® Ultra assay and JAK3 LANCE® Ultra assay were used to carry out the test separately, and kits of the above assays were supplied by PerkinElmer. […]
JAK1, JAK2 and JAK3 kinase, ATP and substrates were dissolved and diluted with buffers.
A test liquid was 2 nM Eu-W1024 anti-phosphotyrosine (PerkinElmer, AD0069). A stop buffer was 10 mM edetic acid (Intech, 1842C505).
2.5 μl of an 8-fold solution of the compound and 5 μl of a 4-fold solution of JAK1 or JAK2 or JAK3 kinase were added into a 384-well plate, respectively, and reacted for 10 minutes at room temperature. 2.5 μl of an 8-fold solution of ULight™-JAK-1 peptide/ATP was added and reacted for 90 minutes at room temperature. Finally, 5 μl of 4-fold edetic acid stop buffer and 5 μl of 4-fold test liquid of Eu-W1024 anti-phosphotyrosine were added and incubated for 60 minutes.
According to the formula: percentage of inhibition rate=(maximum value−transform value)/(maximum value−minimum value)×100, inhibition rate of each compound at various concentrations was calculated. The maximum value was the reference value of dimethyl sulfoxide added into the well plate, the minimum value was the blank value, and the transform value is the value obtained by the well of each compound. The IC50 values of the corresponding compounds were then obtained by fitting by using the XLFit fitting tool in excel.

For the next assay, the target named is JAK3 (Homo sapiens (Human), UniProt P52333). The experiment in a line: JAK3 LANCE Ultra kinase assay. The following applies: 4 uM ATP.
Chain of JAK3 (P52333 whole entry): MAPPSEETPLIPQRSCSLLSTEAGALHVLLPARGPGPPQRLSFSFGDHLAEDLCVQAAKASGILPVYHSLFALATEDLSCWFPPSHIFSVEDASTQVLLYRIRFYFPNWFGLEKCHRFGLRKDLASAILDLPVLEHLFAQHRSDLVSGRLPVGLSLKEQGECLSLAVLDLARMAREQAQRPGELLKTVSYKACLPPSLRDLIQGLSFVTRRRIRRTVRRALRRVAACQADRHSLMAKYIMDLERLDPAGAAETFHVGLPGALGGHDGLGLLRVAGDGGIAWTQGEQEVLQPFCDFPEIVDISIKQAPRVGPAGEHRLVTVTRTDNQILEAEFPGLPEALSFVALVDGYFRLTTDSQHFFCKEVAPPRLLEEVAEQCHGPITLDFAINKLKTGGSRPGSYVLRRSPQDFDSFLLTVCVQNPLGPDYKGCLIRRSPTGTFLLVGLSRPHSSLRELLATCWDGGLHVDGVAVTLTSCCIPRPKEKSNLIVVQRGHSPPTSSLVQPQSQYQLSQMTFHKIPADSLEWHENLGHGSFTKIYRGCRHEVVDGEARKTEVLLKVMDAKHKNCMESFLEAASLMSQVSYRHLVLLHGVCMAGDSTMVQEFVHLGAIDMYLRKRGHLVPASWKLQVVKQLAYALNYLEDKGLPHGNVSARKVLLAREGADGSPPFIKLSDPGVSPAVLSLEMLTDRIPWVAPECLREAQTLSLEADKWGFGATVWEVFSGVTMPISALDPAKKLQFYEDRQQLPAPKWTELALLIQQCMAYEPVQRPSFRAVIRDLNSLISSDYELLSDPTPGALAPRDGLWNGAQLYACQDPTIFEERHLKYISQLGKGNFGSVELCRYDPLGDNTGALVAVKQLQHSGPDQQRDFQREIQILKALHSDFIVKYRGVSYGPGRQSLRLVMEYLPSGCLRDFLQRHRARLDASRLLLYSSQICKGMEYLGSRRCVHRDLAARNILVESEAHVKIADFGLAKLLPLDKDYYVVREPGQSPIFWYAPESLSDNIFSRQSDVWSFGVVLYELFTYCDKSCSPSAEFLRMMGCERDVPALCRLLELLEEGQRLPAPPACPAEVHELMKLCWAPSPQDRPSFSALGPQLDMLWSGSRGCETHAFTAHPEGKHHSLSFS

Eight compounds from US12398141B2 (SHANGHAI SYNERGY PHARMACEUTICAL SCIENCES CO., LTD, priority 2019, dated 2025) can be followed below.

Molecules are shown by their SMILES.

Usually IC50 stands for the concentration needed to halve the response being measured. High values mean weaker potency in that assay, low ones greater potency in that assay.

Chain of JAK2 (O60674 whole entry): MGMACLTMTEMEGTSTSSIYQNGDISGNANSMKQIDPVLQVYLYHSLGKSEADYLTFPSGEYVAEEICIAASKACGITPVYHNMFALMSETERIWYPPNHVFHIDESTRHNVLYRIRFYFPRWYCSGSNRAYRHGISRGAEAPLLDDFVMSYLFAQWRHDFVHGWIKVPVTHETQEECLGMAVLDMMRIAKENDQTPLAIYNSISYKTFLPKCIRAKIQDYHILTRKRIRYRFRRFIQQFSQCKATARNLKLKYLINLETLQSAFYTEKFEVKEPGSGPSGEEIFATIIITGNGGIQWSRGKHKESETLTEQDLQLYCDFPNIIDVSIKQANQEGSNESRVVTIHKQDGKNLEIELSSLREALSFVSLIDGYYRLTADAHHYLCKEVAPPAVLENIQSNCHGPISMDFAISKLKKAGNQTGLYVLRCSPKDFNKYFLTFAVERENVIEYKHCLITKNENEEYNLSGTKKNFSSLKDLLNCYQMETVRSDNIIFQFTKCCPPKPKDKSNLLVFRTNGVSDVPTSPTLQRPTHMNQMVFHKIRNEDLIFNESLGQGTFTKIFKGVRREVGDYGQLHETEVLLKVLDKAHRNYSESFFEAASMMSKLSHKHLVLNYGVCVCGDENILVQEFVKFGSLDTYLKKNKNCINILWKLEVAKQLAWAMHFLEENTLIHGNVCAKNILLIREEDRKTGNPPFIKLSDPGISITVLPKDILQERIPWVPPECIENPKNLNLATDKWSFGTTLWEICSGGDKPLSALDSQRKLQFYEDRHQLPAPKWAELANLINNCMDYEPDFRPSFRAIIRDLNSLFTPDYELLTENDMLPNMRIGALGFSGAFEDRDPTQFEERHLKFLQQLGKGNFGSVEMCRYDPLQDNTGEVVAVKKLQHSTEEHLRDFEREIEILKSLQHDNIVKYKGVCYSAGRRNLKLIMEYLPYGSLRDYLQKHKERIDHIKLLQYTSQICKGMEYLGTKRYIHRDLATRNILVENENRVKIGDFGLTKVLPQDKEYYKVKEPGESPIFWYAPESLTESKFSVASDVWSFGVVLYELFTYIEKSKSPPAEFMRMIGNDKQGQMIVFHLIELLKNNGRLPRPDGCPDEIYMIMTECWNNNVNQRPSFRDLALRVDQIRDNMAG
Chain of JAK1 (P23458 whole entry): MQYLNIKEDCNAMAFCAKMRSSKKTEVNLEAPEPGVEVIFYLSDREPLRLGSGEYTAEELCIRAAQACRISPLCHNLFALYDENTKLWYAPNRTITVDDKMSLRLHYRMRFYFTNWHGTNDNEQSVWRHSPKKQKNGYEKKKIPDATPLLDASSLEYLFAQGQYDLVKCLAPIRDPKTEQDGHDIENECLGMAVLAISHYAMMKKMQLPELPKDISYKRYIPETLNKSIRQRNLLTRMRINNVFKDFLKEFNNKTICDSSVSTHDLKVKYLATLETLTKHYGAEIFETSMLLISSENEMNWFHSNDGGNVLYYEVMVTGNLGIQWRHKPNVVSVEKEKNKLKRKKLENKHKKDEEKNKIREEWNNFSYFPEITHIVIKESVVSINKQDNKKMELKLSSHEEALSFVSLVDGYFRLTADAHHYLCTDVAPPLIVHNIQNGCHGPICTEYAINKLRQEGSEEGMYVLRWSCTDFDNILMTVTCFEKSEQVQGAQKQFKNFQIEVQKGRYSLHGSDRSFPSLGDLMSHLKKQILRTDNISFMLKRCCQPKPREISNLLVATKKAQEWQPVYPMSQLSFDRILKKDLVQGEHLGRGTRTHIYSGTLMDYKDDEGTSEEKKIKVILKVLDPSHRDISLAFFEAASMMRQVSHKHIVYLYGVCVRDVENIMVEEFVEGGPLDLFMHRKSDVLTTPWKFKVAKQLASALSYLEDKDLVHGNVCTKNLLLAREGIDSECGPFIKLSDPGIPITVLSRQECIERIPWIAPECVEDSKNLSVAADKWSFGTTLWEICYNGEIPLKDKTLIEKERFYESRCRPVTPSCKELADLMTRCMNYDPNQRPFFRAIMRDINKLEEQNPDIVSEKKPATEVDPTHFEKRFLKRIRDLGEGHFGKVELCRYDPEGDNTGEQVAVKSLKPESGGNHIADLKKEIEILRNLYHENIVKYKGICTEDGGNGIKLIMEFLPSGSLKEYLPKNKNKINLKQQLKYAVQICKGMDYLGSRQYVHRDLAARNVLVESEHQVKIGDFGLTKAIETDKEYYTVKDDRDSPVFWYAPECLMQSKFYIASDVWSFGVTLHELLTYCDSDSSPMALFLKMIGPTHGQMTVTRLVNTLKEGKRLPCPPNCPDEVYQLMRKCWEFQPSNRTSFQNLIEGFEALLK

For the compound `CCOc1nc(NC(=O)N2C[C@H]3C[C@H](N(C)c4c(C#N)cnc5[nH]ccc45)C[C@H]3C2)no1` [Compound H48, (3aR,5s,6aS)-5-((5-cyano-1H-pyrrolo[2,3-b]pyridin-4-yl)(methyl)amino)-N-(5-ethoxy-1,2,4-oxadiazole-3-yl)hexahydrocyclopentadiene[c]pyrrole-2(1H)-carboxamide], the values for the IC50 at JAK2, on JAK1 and against JAK3 were 7.4 nM, 0.86 nM and 56 nM, respectively. For the same compound, at JAK1, the JAK2/JAK1 came to 8.60.
In the case of `N#Cc1cnc2[nH]ccc2c1N[C@H]1C[C@@H]2CN(C(=O)Nc3nc(C4CC4)ns3)C[C@@H]2C1` [Compound H49, (3aR,5s,6aS)-5-((5-cyano-1H-pyrrolo[2,3-b]pyridin-4-yl)amino)-N-(3-cyclopropyl-1,2,4-thiadiazole-5-yl)hexahydrocyclopentadiene[c]pyrrole-2(1H)-carboxamide], the IC50 against JAK2 amounted to 15 nM; against JAK1, 5.43 nM; against JAK3 it was 178 nM. At JAK1, the JAK2/JAK1 amounted to 2.76.
`COCCOc1nsc(NC(=O)N2C[C@H]3C[C@H](N(C)c4c(C#N)cnc5[nH]ccc45)C[C@H]3C2)n1` [Compound H51, (3aR,5S,6aS)-5-((5-cyano-1H-pyrrolo[2,3-b]pyridin-4-yl)(methyl)amino)-N-(3-(2-methoxyethoxy)-1,2,4-thiadiazole-5-yl)hexahydrocyclopenta[c]pyrrole-2(1H)-carboxamide]: the half-inhibitory concentration (IC50) amounted to 30.9 nM against JAK2, 6.89 nM against JAK1 and 101 nM against JAK3. Further, on JAK1, the JAK2/JAK1 is on record as 4.49.
The like results for `COCCOc1nsc(NC(=O)N2C[C@H]3C[C@H](Nc4c(C#N)cnc5[nH]ccc45)C[C@H]3C2)n1` [Compound H52, (3aR,5S,6aS)-5-((5-cyano-1H-pyrrolo[2,3-b]pyridin-4-yl)amino)-N-(3-(2-methoxyethoxy)-1,2,4-thiadiazole-5-yl)hexahydrocyclopenta[c]pyrrole-2(1H)-carboxamide] were, in that order, 7.95 nM, 0.79 nM, 69 nM and 10.06.
For `CN(C)Cc1nsc(NC(=O)N2C[C@H]3C[C@H](Nc4c(C#N)cnc5[nH]ccc45)C[C@H]3C2)n1` [Compound H55, (3aR,5s,6aS)-5-((5-cyano-1H-pyrrole[2,3-b]pyridin-4-yl)amino)-N-(3-((dimethylamino)methyl)-1,2,4-thiadiazole-5-yl)hexahydrocyclopenta[c]pyrrole-2(1H)-carboxamide], in that order: 17.7 nM, 2.59 nM, 253 nM and 6.83.
`COCc1nsc(NC(=O)N2C[C@H]3C[C@H](N(C)c4c(C#N)cnc5[nH]ccc45)C[C@H]3C2)n1` [Compound H56]: the figures for the IC50 at JAK2, on JAK1 and against JAK3 were 10 nM, 1.43 nM and 82 nM, respectively. For the same compound, the JAK2/JAK1 at JAK1 came to 7.01.
As to `COCc1nsc(NC(=O)N2C[C@H]3C[C@H](Nc4c(C#N)cnc5[nH]ccc45)C[C@H]3C2)n1` [Compound H57], the half-maximal inhibitory concentration (IC50) on JAK2 is 6.4 nM; against JAK1, 0.89 nM; against JAK3, 48 nM. Further, the JAK2/JAK1 on JAK1 was 7.19.
For `CC[C@@H]1CC(NS(=O)(=O)c2cccc(C(F)(F)F)c2)C[C@@H]1Nc1c(C#N)cnc2[nH]ccc12` (some centres unmarked) [Compound H60, N-(3-((5-cyano-1H-pyrrolo[2,3-b]pyridin-4-yl)amino)-4-ethylcyclopentyl)-3-(trifluoromethyl)benzsulfamide], in that order: 35 nM, 5.6 nM, 153 nM and 6.25.
